Source: paper PMC9856093, “CIGB-300 Anticancer Peptide Differentially Interacts with CK2 Subunits and Regulates Specific Signaling Mediators in a Highly Sensitive Large Cell Lung Carcinoma Cell Model” (Biomedicines, 2022)
Positions of bridges follow the written chain, without caps; N, C: chain ends. Non-standard residues stand in square brackets, D forms with d. Residues, ends and D or L forms follow the SMILES beside them. βAla = NCCC(=O)O

Assays:
other solid tumor cells = test system: other solid tumor cells; parameters: method as in PMID 35155265; settings: read-out: IC50 mean value, antiproliferative effect; cited from earlier work
c-Myc = assay: Western blot, cancer molecular markers; assay type: cell-based, human
Method: (§1) NCI-H460 cells were plated on six-well cell culture plates at 1 × 10^6 cells per well and incubated overnight at 37 °C and 5% CO2. […] After incubation, the culture medium was withdrawn, and cells were washed with PBS and lysed in RIPA buffer containing protease/phosphatase inhibitor (Thermo Fisher Scientific, Waltham, MA, USA). Western blot detection was carried out as described (4.6). Primary antibodies against phospho-PTEN (S380) and total PTEN (Cell Signaling Technology, Danvers, MA, USA), phospho-RPS6 (S235/236) and total RPS6 (Cell Signaling Technology, Danvers, MA, USA), Ezrin (Abcam, Cambridge, UK), c-Myc (CIGB, SP, Cuba), and Fibrillarin (Abcam, Cambridge, UK) were used. Primary antibodies against CK2 subunits were used as previously described. All experiments were performed at least two times.

CK2β = assay: In vivo pull-down plus Western blot; assay type: binding, human; settings: biotin-tagged peptide 30 µM, 0.5 h, NCI-H460 cells
Method: (§2) For in vivo pull-down assays, N-terminal biotin tagged CIGB-300 (CIGB-300-B) was added to NCI-H460 cells at a final concentration of 30 µM and incubated for 30 min at 37 °C and 5% CO2. Subsequently, cells were collected, washed, and lysed in PBS solution (Sigma, St. Louis, MO, USA) containing 1 mM DTT (Sigma, St. Louis, MO, USA), Triton X-100 (1%), and complete protease inhibitor (Roche, Basel, Switzerland). Cellular lysates were cleared by centrifugation and added to 30 μL of pre-equilibrated streptavidin–sepharose matrix (GE Healthcare, Chicago, IL, USA). In the case of RNA pre-treatment, another cell extract was incubated with RNAase A (10 mg/mL) (Promega, Madison, WI, USA) for 20 min at 37 °C. Following 1 h at 4 °C, the matrix was collected by centrifugation and extensively washed with cold PBS 1 mM and DTT. Proteins bound to streptavidin–sepharose matrix were digested with trypsin (Promega, Madison, WI, USA) during 16 h or eluted for Western blot analysis. In parallel, untreated cells were subjected to the same experimental procedure to identify those proteins non-specifically bound to streptavidin–sepharose matrix. Proteins were resolved in 12% SDS-PAGE and then transferred to a nitrocellulose membrane. […]

RPS6 = assay: In vivo pull-down plus Western blot; assay type: binding, human; settings: biotin-tagged peptide 30 µM, 0.5 h, NCI-H460 cells; RNAase free assay
Method: as §2

p-RPS6 (S235/236) = assay: Western blot, CK2 downstream signaling; assay type: cell-based, human; settings: NCI-H460, 30 µM, 48 h
Method: as §1

A549 = A549 NSCLC cell line; cited from earlier work
Text: In this work, we evaluated for the first time the molecular events supporting CK2 inhibition by CIGB-300 in an LCLC in vitro model such as NCI-H460 cells.

[1] = test system: mRNA levels of CK2 subunits; assay: Quantitative real-time PCR of CK2 subunit transcripts; assay type: cell-based, human; settings: normalised to GAPDH and HMBS
Method: Three replicates per condition were used. […] Louis, MO, USA) for RNA isolation (AllPrep DNA/RNA/miRNA Universal Kit, Qiagen, Valencia, CA, USA), according to the manufacturer protocol. All RNA samples were checked by Nanodrop spectrophotometer to measure concentration (ng/μL) and OD relation (260/280 nm). […] Complementary (c)DNAs were obtained from 500 ng of total RNAs, using the Transcriptor First Strand cDNA Synthesis Kit package (Roche, Mannheim, Germany), following manufacturer instructions. […] We amplified two genes for normalization of GAPDH (glyceraldehyde-3-phosphate dehydrogenase) and HMBS (hydroxymethyl-bilane synthase), and the transcripts encoding for CK2 subunits. All the oligonucleotides were synthetized in the Synthesis Department at CIGB (Table S1). Runs were carried out in the LightCycler® 480II equipment (Roche, Mannheim, Germany) in a 96-well format and SYBR Green Probe II mode with a standard program with 45 cycles. Fold changes for transcripts in each treatment were calculated with respect to time-matched control groups after normalization with GAPDH and HMBS genes (v2.0.13, Qiagen GbmH, Munich, Germany), using Ct values and reaction efficiencies per amplicon calculated in […]11.3). Statistical differences are reported in this program, with a p-value-associated with a significance for p < 0.05.

NCI-H460 cells [2] = assay: Annexin V-FITC/PI staining, apoptosis by flow cytometry; assay type: cell-based, human
Method: Apoptosis of NCI-H460 cells was measured using FITC Annexin V Apoptosis Detection Kit (BD Biosciences, San Jose, CA, USA). […] NCI-H460 cells were incubated also with 5 µM CX-4945 for 6 h, 24 h and 48 h. Subsequently, cells were washed twice with cold PBS and resuspended in binding buffer (1X) at a final concentration of 1 × 10^6 cells/mL. Finally, 5 µL of FITC Annexin V and PI were added, and cell suspensions were incubated for 15 min at room temperature in the dark. Flow cytometric analysis of stained cells was performed as previously described. All experiments were performed at least two times.

CK2α = molecular target: T1, CK2α (Homo sapiens, UniProt P68400); assay: In vivo pull-down plus Western blot; assay type: binding; settings: biotin-tagged peptide 30 µM, 0.5 h, NCI-H460 cells
T1 construct: endogenous in cells; host or cells: NCI-H460
Method: as §2, with “membrane. For Western blot analysis, a mouse monoclonal antibody against CK2α (Abcam, Cambridge, UK), a rabbit polyclonal antibody against CK2α′ (Abcam, Cambridge, UK), a mouse monoclonal antibody against CK2β (Sigma, St. Louis, MO, USA), and monoclonal rabbit antibodies against PTEN and RPS6 (Cell Signaling, Danvers, MA, USA), respectively, were used as primary antibodies. Detection was performed with peroxidase-conjugated anti-mouse IgG 1:5000 (Sigma, St. Louis, MO, USA) and anti-rabbit IgG 1:5000 (Sigma, St. Louis, MO, USA). […]” for “membrane.”

CK2α′ = molecular target: T2, CK2α′ (Homo sapiens, UniProt P19784); assay: In vivo pull-down plus Western blot; assay type: binding; settings: biotin-tagged peptide 30 µM, 0.5 h, NCI-H460 cells
T2 construct: endogenous in cells; host or cells: NCI-H460
Method: as §2, with “membrane. For Western blot analysis, a mouse monoclonal antibody against CK2α (Abcam, Cambridge, UK), a rabbit polyclonal antibody against CK2α′ (Abcam, Cambridge, UK), a mouse monoclonal antibody against CK2β (Sigma, St. Louis, MO, USA), and monoclonal rabbit antibodies against PTEN and RPS6 (Cell Signaling, Danvers, MA, USA), respectively, were used as primary antibodies. Detection was performed with peroxidase-conjugated anti-mouse IgG 1:5000 (Sigma, St. Louis, MO, USA) and anti-rabbit IgG 1:5000 (Sigma, St. Louis, MO, USA). […]” for “membrane.”

PTEN = molecular target: T3, PTEN (Homo sapiens, UniProt P60484); assay: In vivo pull-down plus Western blot; assay type: binding; settings: biotin-tagged peptide 30 µM, 0.5 h, NCI-H460 cells
T3 construct: endogenous in cells; host or cells: NCI-H460
Method: as §2, with “membrane. For Western blot analysis, a mouse monoclonal antibody against CK2α (Abcam, Cambridge, UK), a rabbit polyclonal antibody against CK2α′ (Abcam, Cambridge, UK), a mouse monoclonal antibody against CK2β (Sigma, St. Louis, MO, USA), and monoclonal rabbit antibodies against PTEN and RPS6 (Cell Signaling, Danvers, MA, USA), respectively, were used as primary antibodies. Detection was performed with peroxidase-conjugated anti-mouse IgG 1:5000 (Sigma, St. Louis, MO, USA) and anti-rabbit IgG 1:5000 (Sigma, St. Louis, MO, USA). […]” for “membrane.”

NCI-H125 = NCI-H125 NSCLC cell line; cited from earlier work
NCI-H460 cells [3] = assay: Cell cycle analysis, PI staining, flow cytometry; assay type: cell-based, human
Method: For cell cycle analysis, NCI-H460 cells were incubated with 30 µM CIGB-300 or with 5 µM CX-4945, respectively, during 6 h, 24 h and 48 h. Following treatment with the peptide, cells were collected by centrifugation, washed with PBS, and fixed at 4 °C for 2 h with ice-cold 70% ethanol. After fixation, cells were treated with DNase-free RNase A (Sigma, St. Louis, MO, USA) and subsequently stained at 37 °C for 20 min with […] PI solution (Sigma, St. Louis, MO, USA). Stained cells were analyzed in the above-mentioned Partec CyFlow Space flow cytometry, and FlowJo Software (v7.6.1) was used for data processing and visualization. All experiments were performed at least four times.

NCI-H460 cells [4] = assay: Antiproliferative assay, crystal violet staining; assay type: cell-based; settings: Homo sapiens, 48 h incubation, CalcuSyn, mean, n = 4, read-out: IC50, antiproliferative effect
Method: NCI-H460 was originally obtained from the American Type Culture Collection (ATCC, Manassas, VA, USA). The cell line was cultured in Dulbecco’s modified Eagle’s medium (DMEM) (Gibco, Waltham, MA, USA) supplemented with 10% (v/v) fetal bovine serum (FBS, Invitrogen, Carlsbad, CA, USA) and 50 µg/mL gentamicin (Sigma, St. Louis, MO, USA). Cells were maintained at 37 °C and 5% CO2.
Antiproliferative effect was determined using crystal violet staining. Cells were seeded in flat-bottom 96-well plates (6000 cells/mL), and 24 h later, serial dilutions 1:2 ranging from 200 to 12.5 µM of CIGB-300 and serial dilutions 1:2 ranging from 50 to 3.12 µM of CX-4945 were added, respectively. After 48 h of incubation, the medium was removed from each well and crystal violet (1%) (Sigma, St. Louis, MO, USA) was added and incubated for 5 min at room temperature. After dye removal, wells were washed with water. Absorbance was measured in a CLARIOstar microplate reader (BMG LABTECH, Ortenberg, Germany), and half-inhibitory concentration (IC50) values were estimated using CalcuSyn software (v2.1) (Biosoft, Cambridge, UK).

[5] = NCI-H460, 5 µM, 6 h, 24 h and 48 h

T2 sequence (P19784 whole entry): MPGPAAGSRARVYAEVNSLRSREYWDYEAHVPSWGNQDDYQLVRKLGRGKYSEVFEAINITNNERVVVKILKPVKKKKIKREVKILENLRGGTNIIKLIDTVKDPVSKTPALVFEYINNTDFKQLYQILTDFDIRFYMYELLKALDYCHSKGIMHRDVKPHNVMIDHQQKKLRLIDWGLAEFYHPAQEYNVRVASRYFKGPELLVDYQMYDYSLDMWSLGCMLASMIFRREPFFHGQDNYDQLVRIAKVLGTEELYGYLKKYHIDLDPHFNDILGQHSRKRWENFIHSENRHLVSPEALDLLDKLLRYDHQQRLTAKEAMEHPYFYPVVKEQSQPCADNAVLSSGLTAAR
T3 sequence (P60484 whole entry): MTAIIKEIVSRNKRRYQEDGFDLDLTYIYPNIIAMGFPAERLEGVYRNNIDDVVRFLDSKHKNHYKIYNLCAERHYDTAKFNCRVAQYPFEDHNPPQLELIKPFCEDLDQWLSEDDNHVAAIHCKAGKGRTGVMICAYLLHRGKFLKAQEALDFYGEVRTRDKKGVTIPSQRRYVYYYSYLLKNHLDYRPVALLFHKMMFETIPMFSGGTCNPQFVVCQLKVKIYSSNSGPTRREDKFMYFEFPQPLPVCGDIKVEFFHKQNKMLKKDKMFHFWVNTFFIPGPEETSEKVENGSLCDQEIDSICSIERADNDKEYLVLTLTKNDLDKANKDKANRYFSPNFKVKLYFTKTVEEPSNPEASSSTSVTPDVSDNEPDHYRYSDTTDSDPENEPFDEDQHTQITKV
T1 sequence (P68400 whole entry): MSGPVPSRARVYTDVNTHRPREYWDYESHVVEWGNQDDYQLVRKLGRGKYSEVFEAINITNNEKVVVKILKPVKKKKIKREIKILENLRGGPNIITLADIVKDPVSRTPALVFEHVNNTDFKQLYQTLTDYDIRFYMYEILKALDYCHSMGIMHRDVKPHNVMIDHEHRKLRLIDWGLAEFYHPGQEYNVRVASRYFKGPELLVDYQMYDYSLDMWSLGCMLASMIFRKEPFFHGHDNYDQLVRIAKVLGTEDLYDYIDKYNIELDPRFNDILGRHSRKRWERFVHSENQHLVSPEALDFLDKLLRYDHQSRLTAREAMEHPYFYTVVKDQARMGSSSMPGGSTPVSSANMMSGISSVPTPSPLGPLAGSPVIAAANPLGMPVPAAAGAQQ

Row | SMILES | IC50 (other solid tumor cells) | effect on c-Myc protein expression (c-Myc; NCI-H460, 30 µM, 0.5 h to 48 h) | regulatory subunit (β) of CK2 in pull-down fraction (CK2β) | interaction with RPS6 in pull-down fraction (RPS6) | effect on p-RPS6 (S235/236) (p-RPS6 (S235/236)) | IC50 (A549) | up-regulation of mRNA levels of CK2 subunits ([1]; NCI-H460, 30 µM, earlier times (0.5 h, 3 h, 6 h)) | apoptotic peak (NCI-H460 cells [2]; NCI-H460, 30 µM, at 6 h) | interaction with CK2α in pull-down fraction (CK2α) | interaction with CK2α′ in pull-down fraction (CK2α′) | interaction with PTEN in pull-down fraction (PTEN) | IC50 (NCI-H125) | perturbation of cells accumulated in the G0/G1 and S phases of the cell cycle (NCI-H460 cells [3]; NCI-H460, 30 µM, S phase at 6 h, G0/G1 at 24 h and 48 h) | effect on c-Myc protein expression (c-Myc; NCI-H460, 5 µM, 6 h to 48 h) | IC50 (NCI-H460 cells [4]) | up-regulation of mRNA levels of CK2 subunits ([1]; NCI-H460, 5 µM, longer incubation times (3 h to 24 h)) | changes in the double-positive region of the panel (NCI-H460 cells [2]; [5]) | cell cycle modulation versus untreated cells (NCI-H460 cells [3]; [5])
1 | CSCC[C@@H]1NC(=O)[C@H](Cc2c[nH]c3ccccc23)NC(=O)[C@@H](NC(=O)CCNC(=O)[C@H](CCC(N)=O)NC(=O)[C@@H]2CCCN2C(=O)[C@@H]2CCCN2C(=O)[C@H](CCCNC(=N)N)NC(=O)[C@H](CCCNC(=N)N)NC(=O)[C@H](CCCNC(=N)N)NC(=O)[C@H](CCC(N)=O)NC(=O)[C@H](CCCNC(=N)N)NC(=O)[C@H](CCCNC(=N)N)NC(=O)[C@H](CCCCN)NC(=O)[C@H](CCCCN)NC(=O)[C@H](CCCNC(=N)N)NC(=O)CN)CSSC[C@@H](C(=O)O)NC(=O)[C@H]([C@@H](C)O)NC(=O)CNC(=O)[C@H](CC(C)C)NC(=O)[C@H](Cc2c[nH]cn2)NC(=O)[C@H](CCCNC(=N)N)NC(=O)[C@@H]2CCCN2C(=O)[C@H](CO)NC1=O [CIGB-300] (H-GRKKRRQRRRPPQ[βAla]CWMSPRHLGTC-OH; disulfide 15-25; N-terminus and C-terminus assumed) | 60 to 300 µM | decreased c-Myc protein expression throughout all incubation times | only minor levels | evident interaction | potent inhibition | 171 µM | no more than 1.5 fold | ~50% | mainly interacted | mainly interacted | did not interact | 60 µM | 10–15% | – | – | – | – | –
2 | O=C(O)c1ccc2c(c1)nc(Nc1cccc(Cl)c1)c1ccncc12 [CX-4945, reference compound] | – | – | – | – | – | – | – | – | – | – | – | – | – | induced c-Myc up-regulation | 5 ± 2.1 µM | no more than 1.5 fold | did not induce any remarkable changes | modified the amount of the cell population in all phases of the cell cycle
